Source: patent US20250262297A1, “ALLERGY ANTIGEN AND EPITOPE THEREOF” (HOYU CO., LTD., priority 2017, published 2025)

What was measured:
Format in all cases: binding, human
[1] = test system: IgE antibodies from soybean-allergic patients; experiment: Immunoblotting of two-dimensional electrophoresis pattern of soybean proteins with patient serum; settings: spot in 2D electrophoresis gel of soybean proteins; patient serum compared with healthy subject serum
From the text: Transfer to membrane was done using the following transfer system and transfer buffer. • Transfer system: XCell SureLock Mini-Cell and XCell II Blot Module (produced by Life Technologies) • Transfer buffer: NuPAGE Transfer Buffer (X20) (produced by Life Technologies), used in a form diluted 20-fold with milliQ water.
To be specific, proteins in the two-dimensional electrophoresis gels were transferred to a membrane (PVDF membrane) according to the following procedure. • (1) The PVDF membrane was immersed in 100% methanol followed by milliQ water, and then moved into the transfer buffer to hydrophilize the PVDF membrane. • (2) After sponge, filter paper, the gels treated by second-dimensional SDS-PAGE, the hydrophilized PVDF membrane, filter paper, and sponge were put in place in this order, the transfer system was energized at a constant voltage of 30 V for one hour.
Immunoblotting of the membrane was carried out using, as a primary antibody, a serum sample from a patient with a soybean allergy or a serum sample from a healthy subject.
Immunoblotting of the membrane was carried out according to the following procedure. • (1) The transferred membrane was shaken in a 5% skim milk/PBST solution (a PBS buffer containing 0.3% Tween 20 nonionic surfactant) at room temperature for one hour. • (2) The membrane was left to stand in a solution of 3% primary antibody serum in 5% skim milk/PBST at room temperature for one hour. • (3) The membrane was washed with a PBST solution (5 min.×3 times). • (4) The membrane was left to stand in a 1:2500 dilution of the secondary antibody, anti-human IgE-HRP (horseradish peroxidase), with a 3% skim milk/PBST solution at room temperature for one hour. • (5) The membrane was washed with a PBST solution (5 min.×3 times). • (6) The membrane was left to stand in Pierce Western Blotting Substrate Plus (produced by Thermo Fisher Scientific) for 5 minutes.
The membrane obtained through the foregoing series of treatments was subjected to fluorescent image scanning on Typhoon 9400 (produced by GE).
The immunoblots obtained with the serum from the soybean-allergic patient were compared with those obtained with the control serum from the healthy subject.

[2] = test system: IgE antibody present in the serum of a patient allergic to a soybean; experiment: Epitope mapping and overlapping peptide fragments on SPOT membrane, immunoblotting; settings: procedure of (B), overlapping
Procedure: Epitope mapping was carried out using a library of overlapping peptide fragments (length: 15 amino acids) corresponding to the sequences of proteins bound patient-specifically to IgE antibodies in serum, which were obtained as a result of 2D-western of soybeans.
The peptides to be synthesized were shifted by 10 amino acids.
For preparation of peptide arrays, peptide synthesis of interest was carried out in incremental steps on a modified cellulose membrane by the Intavis SPOT synthesis technique, which is a technique of synthesizing peptides of interest through 9-fluorenylmethoxycarbonyl (Fmoc) chemical reaction, using an automated synthesis apparatus (Intavis MultiPep RS). […]
The presence or absence of binding, to each peptide fragment, of an IgE antibody present in the serum of a patient allergic to a soybean was measured by immunoblotting using the membrane on which the peptide fragments were synthesized by SPOT. […]
Thereafter, for the sequences of peptides bound patient-specifically to IgE antibodies in serum in the epitope mapping described above in (A), a library of overlapping peptide fragments (length: 10 amino acids) was obtained as sequences having the sequences of these peptides as well as additional sequences subsequent to the peptides in the amino acid sequences of antigen proteins on which the epitopes were detected. […]

[3] = test system: IgE antibody from one patient having allergies to a soybean, a peach and an apple; experiment: ELISA of biotinylated peptides, study on cross-reactivity; settings: FIG. 6
Procedure: The binding activity of peptides comprising the amino acid sequences of SEQ ID NOS: 871, 984 and 985 against an IgE antibody from one patient having allergies to a soybean, a peach and an apple was confirmed by ELISA. The peptides were synthesized such that the peptides were N-terminally biotinylated by the Fmoc method.
To be specific, ELISA was carried out according to the following procedure. • (1) The concentrations of the biotinylated peptides were adjusted to 1 μg/mL with PBST. • (2) Each peptide solution was added at 40 μL to each well of a 384-well plate coated with streptavidin, and shaken at room temperature for one hour. After collection of the solution, the wells were washed with PBS five times. • (3) A 1:5 dilution of Blocking one (diluted with MQ) was added at 40 μL thereto and shaken at room temperature for 15 minutes. After removal of the solution, the wells were washed with PBS five times. • (4) A diluted serum solution (1:10, diluting solution: Blocking one produced by Nacalai Tesque, Inc.) was added at 40 μL thereto and shaken at room temperature for one hour. After removal of the solution, the wells were washed with PBS five times. • (5) A diluted secondary antibody solution (1:5000, diluting solution: Blocking one produced by Nacalai Tesque, Inc.) was added at 40 μL thereto and shaken at room temperature for one hour. […] Absorbance at 450 nm was measured.

| Substance | specific binding to IgE antibodies from soybean-allergic patients [1] | further results |
| --- | --- | --- |
| lysine-tRNA ligase, cytoplasmic-like isoform X2 [Spot 9α] | specific binding | – |
| heat shock cognate protein 80 [Spot 2α] | specific binding | – |
| elongation factor 1-alpha [Spot 35α] | specific binding | – |
| SEQ ID NO: 871: amino acids 1-15 of SEQ ID NO: 495 (seed biotin-containing protein SBP65-like isoform X1) (MASEQMPRRENNSNR; epitope) | – | identified as epitope (common sequence of peptides bound to IgE antibodies from allergic patients) [2]: identified as epitopes; binding to IgE antibody from the allergic patient compared with IgE antibody from a healthy subject [3]: bound more strongly; binding activity against the IgE antibody from the patient ([3]; peptide 1 μg/mL, serum 1:10, absorbance at 450 nm): exhibited binding activity |
| pyrophosphate-fructose 6-phosphate 1-phosphotransferase subunit alpha-like [Spot 12α] | specific binding | – |
| glyceraldehyde-3-phosphate dehydrogenase isoform X1 [Spot 29α] | specific binding | – |
| seed biotin-containing protein SBP65-like isoform X1 [Spot 38α] | specific binding | – |
| methionine synthase [Spot 7α] | specific binding | – |
| UTP-glucose-1-phosphate uridylyltransferase [Spot 15α] | specific binding | – |
| embryo-specific urease isoform X1 [Spot 4α] | specific binding | – |
